Tests used:
SIRT1 = biological target: T1, SIRT1 (Homo sapiens, UniProt Q96EB6); assay: Acetylation of p53 (K382) via UV irradiation, western blot, U2OS cells; format: cell-based; settings: 10-100 μM PN6, FIGS. 2C-2D
T1 construct: endogenous in cells; host or cells: U2OS cells; IMR90 cells
T1 sequence (Q96EB6 1-747): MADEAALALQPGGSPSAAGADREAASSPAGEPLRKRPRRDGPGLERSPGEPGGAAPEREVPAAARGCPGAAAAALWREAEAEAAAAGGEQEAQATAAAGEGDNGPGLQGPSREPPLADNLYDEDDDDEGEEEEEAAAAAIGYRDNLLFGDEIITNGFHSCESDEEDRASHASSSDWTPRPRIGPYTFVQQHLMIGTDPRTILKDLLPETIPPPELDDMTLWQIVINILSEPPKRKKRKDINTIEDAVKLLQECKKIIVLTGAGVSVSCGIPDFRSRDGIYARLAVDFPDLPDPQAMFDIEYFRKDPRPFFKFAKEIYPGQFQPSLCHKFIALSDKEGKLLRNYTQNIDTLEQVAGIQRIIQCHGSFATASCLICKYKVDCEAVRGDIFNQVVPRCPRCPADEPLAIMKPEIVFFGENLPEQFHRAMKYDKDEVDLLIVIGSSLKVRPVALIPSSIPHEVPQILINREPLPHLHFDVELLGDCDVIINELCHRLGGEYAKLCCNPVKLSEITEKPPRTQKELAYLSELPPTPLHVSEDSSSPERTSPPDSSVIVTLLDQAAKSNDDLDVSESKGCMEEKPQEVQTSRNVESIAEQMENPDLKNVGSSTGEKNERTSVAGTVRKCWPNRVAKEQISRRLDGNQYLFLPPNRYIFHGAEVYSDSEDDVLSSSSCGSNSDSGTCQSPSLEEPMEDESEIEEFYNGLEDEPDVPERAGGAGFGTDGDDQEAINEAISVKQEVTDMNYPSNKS
Method: U2OS cells (1.2×10^5 cells/dish) or IMR90 cells (3.0×10^5 cells/dish) were seeded into a 3.5 cm culture dish, and incubated with 0, 10, 25, 50, or 100 μM PN6 for 16 hours, before subjected to UVB irradiation at 7.5 mJ/m^2 (for U2OS cells) or 5.0 mJ/m^2 (for IMR90 cells) for 4 hours.
Cells were harvested with a 1.25× Laemmli buffer and lysed in RIPA lysis buffer containing 1% of Triton X-100 and a protease inhibitor cocktail, and total protein concentrations were measured with a protein assay kit. Proteins in the samples of the lysates with the same amounts of total protein were separated by sodium dodecyl sulfate polyacrylamide gel electrophoresis (SDS-PAGE) (10% polyacrylamide gels) and analyzed by immunoblotting. Primary antibodies against p53ac (K382) (1:1,000), p21 (1:1,000), and 3-actin (1:200,000) were applied to detect the corresponding proteins. Horseradish peroxidase (HRP)-conjugated secondary antibodies against mouse IgG were then incubated with the membranes, and proteins were visualized by chemiluminescence according to the manufacturer's instructions. Protein quantification was performed by software.

aged C57BL/6J mice [1] = assay: Survival, body weight and food intake of aged mice
HUVECs [2] = assay: Senescence-associated (SA)-β-gal staining; format: cell-based, human; settings: HUVECs at PDL11, versus control without PN6; FIG. 3C
Method: (§1) For the population doubling (PD) assay, HUVECs (1×10^5 cells/3.5 cm dish) were propagated in the presence of DMSO (i.e., control) or PN6 (1 or 2 μM) until senescence (Day 41), and the cell numbers in each passage were recorded to generate a growth curve that represented the cumulative population doubling. The population doubling levels (PDLs) of HUVECs were calculated in every culture to indicate the proliferation capacity of HUVECs under the respective conditions. The population doublings (PDs) were estimated using the equation: PDL=3.32 (log (total viable cells at harvest/total viable cells at seeding). Also, HUVECs at passages PDL4 and PDL11 cultured in 0 μM (i.e., DMSO alone), 1 μM, or 2 μM PN6 were harvested for further analyses (e.g., western blot and SA-β-gal staining).
HUVECs at 90% confluency were collected, washed, and fixed with 2% formaldehyde and 0.2% glutaraldehyde for 5 minutes. The cells were then subjected to staining by incubation with a staining solution (40 mmol/l citric acid, sodium phosphate, pH 6.0, 1 mg/ml 5-bromo-4-chloro-3-isolyl-β-D-galactoside (X-gal, Sigma), 5 mmol/l potassium ferrocyanide, 5 mmol/l potassium ferricyanide, 150 mmol/l NaCl, and 2 mmol/l MgCl2) at 37° C. for 18-24 hours. The results of SA-β-gal-positive cells were observed by microscopy, and were counted for over 300 cells in at least three independent fields.

aged C57BL/6J mice [3] = assay: Glucose tolerance; format: in vivo, mouse; settings: between the two treatment groups; data not shown
HUVECs [4] = assay: Population doubling (PD) assay; format: cell-based, human; settings: 1 or 2 μM; FIG. 3A
Method: as §1

p21 = p21 expression in HUVECs, western blot; format: cell-based, human; settings: HUVECs at PDL11, 1 or 2 μM; FIG. 3B
Method: as §1
Cells were harvested with a 1.25× Laemmli buffer and lysed in RIPA lysis buffer containing 1% of Triton X-100 and a protease inhibitor cocktail, and total protein concentrations were measured with a protein assay kit. Proteins in the samples of the lysates with the same amounts of total protein were separated by sodium dodecyl sulfate polyacrylamide gel electrophoresis (SDS-PAGE) (10% polyacrylamide gels) and analyzed by immunoblotting. […] Protein quantification was performed by software.

CCC(CC[C@@H](C)C1CCC2C3CC(=O)[C@H]4C[C@@H](O)CC[C@]4(C)C3CC[C@@]21C)C(C)C (stereo in doubt) [PN6, (24S)-3β-hydroxy-5α-stigmastan-6-one]
degree of acetylation of P53 at K382 (SIRT1): decreased in a dose-dependent manner | trajectories of body weight (aged C57BL/6J mice [1]; chow containing 50 mg/kg PN6, FIG. 4B): remained in a steady state | lifespan of the aged mice (aged C57BL/6J mice [1]; chow containing 50 mg/kg PN6, versus SD group, FIG. 4A): significantly increased the lifespan | food intake (aged C57BL/6J mice [1]; versus SD group, entire course of the experiment, FIG. 4C): did not diverge | number of SA-β-gal-positive senescent cells (HUVECs [2]): decrease in the number | glucose tolerance (aged C57BL/6J mice [3]): no significant differences | population doubling level (PDL) of HUVECs (HUVECs [4]): increase the PDL | p21 expression level (p21): decreased dose-dependently
